Binding % data for 14 molecules are collected here from patent US9926267B2, “Covalent inhibitors of K-Ras G12C” (Araxes Pharma LLC, priority 2013, dated 2018).

This experiment concerns the target T1, KRAS G12C 1-169, his-tagged protein, GDP-loaded (Homo sapiens, UniProt P01116, G12C).
T1 construct: KRAS G12C 1-169, his-tagged protein, GDP-loaded
In words: Biochemical assay: covalent binding to KRAS G12C, measured by mass spectrometry. The method, then: Test compounds were prepared as 10 mM stock solutions in DMSO (Fisher cat#BP-231-100). KRAS G12C 1-169, his-tagged protein, GDP-loaded was diluted to 2 μm in buffer (20 mM Hepes, 150 mM NaCl, 1 mM MgCl2). Compounds were tested for activity as follows:
Compounds were diluted to 50× final test concentration in DMSO in 96-well storage plates. Compound stock solutions were vortexed before use and observed carefully for any sign of precipitation. Dilutions were as follow: • For 100 μM final compound concentration, compounds were diluted to 5000 μM (5 μl 10 mM compound stock+5 μl DMSO and mixed well by pipetting. • For 30 μM final compound concentration, compounds were diluted to 1500 μM (3 μl 10 mM compound stock+17 μl DMSO) and mixed well by pipetting. • For […] final compound concentration, compounds were diluted to 500 μM (2 μl 10 mM compound stock+38 μl DMSO) and mixed well by pipetting. 49 μl of the stock protein solution was added to each well of a 96-well PCR plate (Fisher cat#1423027). 1 μl of the diluted 50× compounds were added to appropriate wells in the PCR plate using 12-channel pipettor. Reactions were mixed carefully and thoroughly by pipetting up/down with a 200 μl multi-channel pipettor. The plate was sealed well with aluminum plate seal, and stored in a drawer at room temperature for 2 hrs or 24 hrs. 5 μl of 2% formic acid (Fisher cat#A117) in DI H2O was then added to each well followed by mixing with a pipette. The plate was then resealed with aluminum seal and stored on dry ice until analyzed as described below.
The above described assays were analyzed by mass spectrometry according to the following procedure:
The MS instrument is set to positive polarity, 2 GHz resolution, and low mass (1700) mode and allowed to equilibrate for 30 minutes. The instrument is then calibrated, switched to acquisition mode and the appropriate method loaded.
After another 30 minute equilibration time, a blank batch (i.e., buffer) is run to ensure equipment is operating properly. The samples are thawed at 37° C. for 10 minutes, briefly centrifuged, and transfer to the bench top. Wells A1 and H12 are spiked with 1 uL 500 uM internal standard peptide, and the plates centrifuged at 2000×g for 5 minutes. The method is then run and masses of each individual well recorded.
The masses (for which integration data is desired) for each well are pasted into the platemap and exported from the analysis. Masses for the internal standards are exported as well. The data at 50 ppm is extracted for the +19 charge state, and identity of well A1 is assigned using the internal standard spike and integrated. Peak data is exported as a TOF list and the above steps are repeated individually, for the +20, 21, 22, 23, 24, and charge states.

Setting [1] is: Binding activity determined at 24 hrs, Table 8a.

T1 sequence (P01116 1-169 isoform P01116-2 G12C): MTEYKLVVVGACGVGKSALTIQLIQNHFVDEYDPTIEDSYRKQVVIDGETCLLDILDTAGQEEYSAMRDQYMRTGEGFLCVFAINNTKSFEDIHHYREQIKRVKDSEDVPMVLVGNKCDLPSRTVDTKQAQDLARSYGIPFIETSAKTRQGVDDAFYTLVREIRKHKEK

On to `CN(C)C/C=C/C(=O)N1CCN(C(=O)c2cc(-c3ccccc3Cl)c(Cl)cc2O)CC1` [VI-24, (E)-1-(4-(2′,6-dichloro-4-hydroxy-[1,1′-biphenyl]-3-carbonyl)piperazin-1-yl)-4-(dimethylamino)but-2-en-1-one], for which the Binding % result under setting [1] is reported as “++++ (++++ indicates binding activity greater than 30%)”.

As for `C=CC(=O)N1CCN(C(=O)c2cn(-c3cc(Cl)ccc3Cl)c(=O)cc2O)CC1` [VI-28, 5-(4-acryloylpiperazine-1-carbonyl)-1-(2,5-dichlorophenyl)-4-hydroxypyridin-2(1H)-one], the Binding % result under setting [1] was “++ (++ indicates binding activity greater than 10% and up to 20%)”.

In the case of `C=CC(=O)N1CCN(C(=O)c2cc(-c3cccs3)[nH]n2)CC1` [VI-16, 1-(4-(5-(thiophen-2-yl)-1H-pyrazole-3-carbonyl)piperazin-1-yl)prop-2-en-1-one], under setting [1], the Binding % entry is “+ (+ indicates binding activity from 5% to 10%)”.

For `C=CC(=O)N1CCN(C(=O)c2cc(Cl)c(-c3ccccc3Cl)cc2O)CC1` [VI-41, 1-(4-(2,2′-dichloro-5-hydroxybiphenyl-carbonyl)piperazin-1-yl)prop-2-en-1-one], the Binding % result (Binding activity determined at 2 hrs, Table 8b) is reported as “+ (+ indicates binding activity from 5% to 20%)”.

As for `C=CC(=O)N1CC(NC(=O)c2cc(-c3ccccc3Cl)[nH]n2)C1` [VI-14, N-(1-acryloylazetidin-3-yl)-3-(2-chlorophenyl)-1H-pyrazole-5-carboxamide], the Binding % entry under setting [1] is given as “+ (+ indicates binding activity from 5% to 10%)”.

With `COc1cc(Cl)c(-c2ccccc2Cl)cc1C(=O)N1CCN(C(=O)/C=C/CN(C)C)CC1` [VI-10, (E)-1-(4-(2′,6-dichloro-4-methoxybiphenyl-carbonyl)piperazin-1-yl)-4-(dimethylamino)but-2-en-1-one], under setting [1], the Binding % result is given as “+ (+ indicates binding activity from 5% to 10%)”.

For `C=CS(=O)(=O)N1CCN(C(=O)c2ccc(Cl)c(Cl)c2)CC1` [VI-34, (3,4-dichlorophenyl)(4-(vinylsulfonyl)piperazin-1-yl)methanone], under setting [1], the Binding % result was “+++ (+++ indicates binding activity greater than 20% and up to 30%)”.

With `C=CC(=O)N1CCN(C(=O)c2cc(-c3cc(Cl)ccc3Cl)c(Cl)cc2O)CC1` [VI-17, 1-(4-(2′,5′,6-trichloro-4-hydroxybiphenyl-carbonyl)piperazin-1-yl)prop-2-en-1-one], the Binding % result under setting [1] is listed as “++++ (++++ indicates binding activity greater than 30%)”.

With `C=CC(=O)N1CCN(C(=O)c2nc(-c3ccccc3Cl)c(C)s2)CC1` [VI-22, 1-(4-(4-(2-chlorophenyl)-5-methylthiazole-2-carbonyl)piperazin-1-yl)prop-2-en-1-one], the Binding % entry under setting [1] is on record as “+ (+ indicates binding activity from 5% to 10%)”.

For the molecule `C=CC(=O)NC1CN(C(=O)c2cc(-c3ccccc3Cl)[nH]n2)C1` [VI-15, N-(1-(3-(2-chlorophenyl)-1H-pyrazole-5-carbonyl)azetidin-3-yl)acrylamide], the Binding % entry under setting [1] is listed as “+ (+ indicates binding activity from 5% to 10%)”.

Consider `C=CC(=O)N1CCC(N2CCN(C(=O)CNc3cc(Cl)c(C)cc3O)CC2)C1` (centres unmarked) [Compound V-8, 1-(3-(4-(2-(5-chloro-2-hydroxy-4-methylphenyl-amino)acetyl)piperazin-1-yl)pyrrolidin-1-yl)prop-2-en-1-one], for which the Binding % entry (Binding activity determined at 24 hrs, Table 7a) is “++ (++ indicates binding activity greater than 15% and up to 25%)”.

Consider `C=CC(=O)N1CC(N2CCN(C(=O)NCc3cc(Br)c(Cl)cc3O)CC2)C1` [Compound V-66, 4-(1-acryloylazetidin-3-yl)-N-(5-bromo-4-chloro-2-hydroxybenzyl) piperazine-1-carboxamide], for which, for the setting “Binding activity determined at 2 hrs, Table 7b”, the Binding % result is listed as “+ (+ indicates binding activity from 5% to 20%)”.

As to `C=CC(=O)N1CCN(C(=O)c2cc(Br)c(Cl)cc2O)CC1` [VI-9, 1-(4-(5-bromo-4-chloro-2-hydroxybenzoyl)piperazin-1-yl)prop-2-en-1-one], the Binding % entry under setting [1] is given as “+ (+ indicates binding activity from 5% to 10%)”.

For the molecule `C=CC(=O)N1CCN(C(=O)c2cc(O)c(Cl)c(-c3ccccc3Cl)c2)CC1` [VI-27], the Binding % entry under setting [1] is “+++ (+++ indicates binding activity greater than 20% and up to 30%)”.
